The values below come from US20070141636A1 (priority 2003, published 2007).

Structures are written as SMILES. Entries after “also recorded” stand apart in the source; their conditions may differ. Read-outs that look alike come from different tables or passages of the source.

Assay [1] relates to LnCap cells. As to conditions: LnCap AR with residue 877 threonine to alanine mutation; cited from earlier work.
Assay [2] deals with T1, LnCap AR (residue 877 threonine to alanine) (Homo sapiens, UniProt P10275, T878A).
T1 sequence (P10275 1-920 T878A): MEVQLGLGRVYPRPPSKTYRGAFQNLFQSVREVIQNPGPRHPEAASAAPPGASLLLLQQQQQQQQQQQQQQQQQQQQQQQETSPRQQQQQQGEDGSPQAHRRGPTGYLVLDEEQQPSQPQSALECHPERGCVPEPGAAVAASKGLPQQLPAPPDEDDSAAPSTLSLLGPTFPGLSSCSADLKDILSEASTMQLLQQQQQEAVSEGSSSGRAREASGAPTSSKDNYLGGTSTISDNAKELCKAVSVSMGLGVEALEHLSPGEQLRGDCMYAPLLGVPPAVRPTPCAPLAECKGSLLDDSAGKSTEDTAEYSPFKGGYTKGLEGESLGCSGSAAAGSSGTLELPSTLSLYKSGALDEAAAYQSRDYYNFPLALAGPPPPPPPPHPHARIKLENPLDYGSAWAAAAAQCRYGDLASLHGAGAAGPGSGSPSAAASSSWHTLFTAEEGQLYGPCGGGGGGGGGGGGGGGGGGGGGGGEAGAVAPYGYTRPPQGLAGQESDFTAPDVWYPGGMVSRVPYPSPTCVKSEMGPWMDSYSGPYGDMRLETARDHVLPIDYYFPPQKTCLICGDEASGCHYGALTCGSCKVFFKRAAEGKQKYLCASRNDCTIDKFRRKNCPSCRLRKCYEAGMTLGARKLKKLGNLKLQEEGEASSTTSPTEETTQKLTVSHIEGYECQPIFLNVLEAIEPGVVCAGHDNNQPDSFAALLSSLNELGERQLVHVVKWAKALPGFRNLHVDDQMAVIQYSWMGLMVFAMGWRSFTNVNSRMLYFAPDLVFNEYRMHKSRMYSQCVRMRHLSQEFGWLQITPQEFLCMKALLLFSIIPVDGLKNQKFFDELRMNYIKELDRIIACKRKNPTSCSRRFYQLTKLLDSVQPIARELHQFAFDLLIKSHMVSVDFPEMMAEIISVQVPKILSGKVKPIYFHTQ
As to conditions: LnCap AR expression vector; cited from earlier work.

The test system of assay [3] is LnCap cells. The format is cell-based, human.
The test system of assay [4] is LnCap cells. The format is cell-based, human. The source holds these as a separate data set.
Assay [5] addresses T2, rhARLBD (ligand binding domain of the rhesus monkey AR) (Macaca mulatta, UniProt Q6QT55).
T2 construct: includes amino acids 601 to 895 of the rhesus monkey AR; made in house; host or cells: yeast (pESP-1 vector, Stratagene)
T2 sequence (Q6QT55 601-895): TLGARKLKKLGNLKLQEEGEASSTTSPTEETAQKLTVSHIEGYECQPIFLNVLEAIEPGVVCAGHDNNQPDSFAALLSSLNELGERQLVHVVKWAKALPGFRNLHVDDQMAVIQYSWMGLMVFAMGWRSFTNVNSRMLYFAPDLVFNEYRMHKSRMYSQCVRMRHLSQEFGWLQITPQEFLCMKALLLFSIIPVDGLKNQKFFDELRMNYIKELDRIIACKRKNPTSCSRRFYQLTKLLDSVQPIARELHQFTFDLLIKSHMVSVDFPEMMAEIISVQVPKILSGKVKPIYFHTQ
Put plainly: Hydroxyapatite (HAP)-based 3H-R1881 displacement binding assay using rhARLBD expressed in yeast.
Text: The screening assays were set up to use the ARLBD from Macaca mulatta (rhesus monkey; herein after rhARLBD) expressed in yeast. […] A medium to high throughput AR binding assay for screening analyte libraries and characterizing various analytes therein was also developed.
Cloning the full length rhesus monkey AR from rhesus monkey prostrate mRNA and subsequent subcloning of the rhARLBD was done as described in WO02090529 to Towler and Chen. Briefly, the rhARLBD was PCR amplified from the full rhesus monkey AR and inserted in frame with GST at a SmaI site of the pESP-1 clone. This placed the rhARLBD downstream of the GST-flag tag.
Cell lysates comprising the rhARLBD were prepared as follows. GST-Flag-rhARLBD (Mr=60 kDa) fusion protein was expressed in yeast using the pESP-1 vector (Stratagene, La Jolla, Calif.) according to the manufacturer's protocol. After a sufficient time to express the GST-Flag-rhARLBD the yeast were centrifuged and the yeast pellet resuspended in TGEM/DTT/PI buffer (10 mM Tris-HCl, pH 7.4, 1 mM EDTA, 10% glycerol, 10 mM molybdate, 2 mM dithiothreitol (DTT), 50 μL yeast protease inhibitor cocktail (PI, Sigma Chemicals, St. Louis, Mo.) per gram of yeast and 1/10×^th volume of PI complete (PI: Boehringer-Mannheim, Roche Applied Science, Indianapolis, Ind.) per gram of yeast. The yeast cells were lysed by vortexing in the presence of glass beads in cold TGEM/DTT/PI buffer. The cell debris was centrifuged at 10,000×g for 20 minutes at 4° C. The clear supernatant fraction containing the rhARLBD was the lysate used for the assays. Usually, about 25 to 50 μL of lysate as determined by titration was used per assay. In some cases, the rhARLBD fusion protein was purified from the lysate using a batch purification method using anti-Flag M2 affinity gel (Sigma) in TEGM/DTT buffer. The rhARLBD fusion protein was eluted using TEGM/DTT buffer containing 100 μg/mL Flag peptide.
Hydroxyapatite (HAP)-based binding assays were performed as follows: For the hydroxyapatite assays, the amount of lysate used was based on titration using ^3H-ligand at concentration about the Kd value of the ligand to the corresponding receptor. In general, the assay was carried at in 150 μL of TEGM buffer. […] The samples were vortexed and incubated on ice for about 10 minutes. […] The washing process transfers the HAP pellets containing ligand-bound-expressed receptor to [sequence]-96 GF/B (Packard Instruments Co.) which has been prewetted in 0.5% polyethylimine. The HAP pellets on the filter plates were incubated with 50 μL of MICROSCINT (Packard Instruments Co.) for 2 hours before counted on the TOPCOUNT (Packard Instruments Co.). […] The binding reactions were incubated for about 18 hours at 4° C. and process as above).

On to `CC(C)(O)C(=O)Nc1ccc([N+](=O)[O-])c(C(F)(F)F)c1` [hydroxyflutamide], for which the “stimulation of LnCap cell growth through the AR” value (“stimulation” for short) in the assay on LnCap cells [1] is reported as “able to stimulate cell growth”. Also, the “effect on the androgen promoter in receptor/reporter cotransfection” value in assay [2] is “agonist effect”.

Turning to `C[C@]12CCC(=O)C[C@@H]1CC[C@@H]1[C@@H]2CC[C@]2(C)[C@@H](O)CC[C@@H]12` [DHT, 5-α-dihydrotestosterone], the “agonist activity, PSA production in LnCap cells (agonist mode)” value (shortened to “agonist activity, PSA production”) in the assay with LnCap cells [3] was “full agonist activity; also recorded: had agonist activity”. Besides, the “antagonist activity on PSA production in LnCap cells (antagonist mode)” value (from here on “antagonist activity on PSA production”) with LnCap cells [4] was “full agonist activity”.

Regarding `CC(O)(CS(=O)(=O)c1ccc(F)cc1)C(=O)Nc1ccc(C#N)c(C(F)(F)F)c1` (stereo not shown) [CASODEX], the “stimulation” value with LnCap cells [1] is “retains its antagonism”. Also, in the assay on LnCap cells [3], the “agonist activity, PSA production” value is “full antagonist”. Also, the “antagonist activity on PSA production” value in the assay on LnCap cells [4] is recorded as “antagonist activity”.

As to `C[C@]12CCC(=O)C=C1CC[C@@H]1[C@@H]2CC[C@]2(C)C(=O)CC[C@@H]12` [4-androstene-3,17β-dione], the “agonist activity, PSA production” value with LnCap cells [3] was “had agonist activity”. Besides, in assay [5] (comparison of IC50s, rhARLBD (yeast lysate) vs full-length human AR (mdaAR), FIGS. 2A-2D, 3A-3D), the “binding affinity to rhARLBD compared to full-length human AR” value is listed as “reduced binding affinity”. Moreover, the “antagonist activity on PSA production” value in the assay with LnCap cells [4] was “antagonist activity; also recorded: antagonized the agonist activity of DHT and R1881”.

Regarding `C[C@]1(O)CC[C@H]2[C@@H]3CCC4=CC(=O)CCC4=C3C=C[C@@]21C` [R1881, 17 β-hydroxy-17-methyl-estra-4,9,11-trien-3-one], the “agonist activity, PSA production” value with LnCap cells [3] is listed as “slightly less potent than DHT; also recorded: had agonist activity”. Moreover, in assay [5], the IC50 – broadly, the midpoint of a concentration-inhibition curve – is approximately 1 nM and the “binding affinity to rhARLBD compared to full-length human AR” value was “same binding affinity; also recorded: no significant shift”. Moreover, the “antagonist activity on PSA production” value in the assay with LnCap cells [4] is “does not antagonize”.

Turning to `C[C@]12CC[C@H](O)CC1=CC[C@@H]1[C@@H]2CC[C@]2(C)C(=O)CC[C@@H]12` [DHEA, dehydroepiandrosterone], the “agonist activity, PSA production” value in the assay on LnCap cells [3] was “had agonist activity”. Also, in the assay with LnCap cells [4], the “antagonist activity on PSA production” value is “antagonist activity; also recorded: antagonized the agonist activity of DHT and R1881”.

For the compound `CC(=O)[C@H]1CC[C@H]2[C@@H]3CCC4=CC(=O)CC[C@]4(C)[C@H]3CC[C@]12C` [progesterone], in the assay on LnCap cells [1], the “stimulation” value was “able to stimulate cell growth”.

As for `CC(=O)O[C@]1(C(C)=O)CC[C@H]2[C@@H]3C=C(Cl)C4=CC(=O)[C@@H]5C[C@@H]5[C@]4(C)[C@H]3CC[C@@]21C` [CPA, cyproterone acetate], in the assay on LnCap cells [1], the “stimulation” value is listed as “able to stimulate cell growth”. Also, the “agonist activity, PSA production” value in the assay with LnCap cells [3] was “had agonist activity”. The “antagonist activity on PSA production” value in the assay with LnCap cells [4] is “antagonist activity; also recorded: antagonized the agonist activity of DHT and R1881”.

As for `C[C@]12CC[C@H]3[C@@H](CCC4=C[C@@H](O)CC[C@@]43C)[C@@H]1CC[C@@H]2O` [4-androstene-3β,17β-diol], the “agonist activity, PSA production” value in the assay on LnCap cells [3] is on record as “had agonist activity”. The “antagonist activity on PSA production” value with LnCap cells [4] is “antagonist activity; also recorded: antagonized the agonist activity of DHT and R1881”.
